What was measured:
TNF-α [1] = experiment: Determination of TNF-α secretion in LPS-stimulated mononuclear cells of human peripheral blood in vitro (ELISA); assay type: cell-based; details: human PBMC, LPS 1 μg/mL, 18 to 24 hours, TNF-α in supernatant by ELISA
Experimental: Determination of TNF-α and IL-1β Secretion in Mononuclear Cells of Human Peripheral Blood In Vitro
Peripheral blood mononuclear cells (PMBC) were prepared from heparinized whole blood after separation of PMBC on Ficoll-Hypaque (Amersham-Pharmacia). For the determination of TNF-α level, 3.5-5×10^4 cells were cultured in a total volume of 200 μl within a period of 18 to 24 hours on microtiter flat bottom plates (96 wells, Falcon) in RPMI 1640 medium supplemented with 10% of heat-inactivated human AB serum (Croatian Centre For Transfusion Medicine, Zagreb), 100 units/mL of penicillin, […] and 20 mM HEPES (Invitrogen Life Technologies). The cells were incubated at 37° C. in an atmosphere with 5% CO2 and 90% moisture. The cells in a negative control were cultured only in the medium (NC), while the secretion of TNF-α in a positive control was stimulated by the addition of 1 μg/mL lipopolysaccharide (LPS, E. coli serotype 0111:B4, SIGMA) (PC) and the effect of the tested substances on TNF-α secretion was tested after their addition to cell cultures stimulated with LPS (TS). […] The test sensitivity was <3 pg/mL TNF-α. The determination of IL-1β level was performed as described for TNF-α determination, only that 1×10^5 cells/well and 0.1 ng/mL of LPS were used. IL-1β level was determined by ELISA (R&D Systems). […] IC-50 was calculated using Graph Pad Prism Software. Determination of TNF-α Secretion by RAW 264.7 Cells

[2] = target: T1, Human Prostaglandin-H Synthase—1 (hPGH-1) (Homo sapiens, UniProt P23219); experiment: Human prostaglandin-H synthase-1 (hPGH-1) inhibition assay in transfected COS-7 cells (PGE-2 readout); assay type: cell-based; details: COS-7 cells transfected with hPGH-1, arachidonic acid 20 μM, PGE-2 measured
T1 construct: expressed in transfected cells; host or cells: COS-7 cells (ATCC), transient transfection with Lipofectamine 2000
T1 sequence (P23219 24-599): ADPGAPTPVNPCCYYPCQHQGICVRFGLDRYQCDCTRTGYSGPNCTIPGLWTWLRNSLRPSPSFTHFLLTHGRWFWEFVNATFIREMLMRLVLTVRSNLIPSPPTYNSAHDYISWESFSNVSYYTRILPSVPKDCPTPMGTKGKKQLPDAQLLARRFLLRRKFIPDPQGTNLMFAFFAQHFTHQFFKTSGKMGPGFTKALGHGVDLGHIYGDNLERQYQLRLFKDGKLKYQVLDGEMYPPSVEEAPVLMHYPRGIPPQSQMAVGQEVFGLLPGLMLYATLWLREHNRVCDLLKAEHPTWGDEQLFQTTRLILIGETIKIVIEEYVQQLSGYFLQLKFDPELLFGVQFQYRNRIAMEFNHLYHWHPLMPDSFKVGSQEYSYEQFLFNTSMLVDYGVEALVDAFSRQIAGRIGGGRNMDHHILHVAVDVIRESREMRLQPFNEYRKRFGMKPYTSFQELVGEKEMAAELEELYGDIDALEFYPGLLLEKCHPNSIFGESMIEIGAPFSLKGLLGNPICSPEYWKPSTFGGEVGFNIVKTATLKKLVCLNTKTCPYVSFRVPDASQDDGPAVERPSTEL
Experimental: (§1) The cells were grown in 10% fetal bovine serum (FBS) in DMEM medium (Invitrogen Life Technologies) at 37° C. in an atmosphere with 5% CO2 and 90% moisture. 20 000 cells/well were plated in 96 well plate (Falcon). The cells in a negative control were cultured only in the medium (NC), while the secretion of TNF-α in a positive control was stimulated by the addition of 500 pg/mL lipopolysaccharide (LPS, E. coli serotype 0111:B4, SIGMA) (PC) and the effect of the tested substances on TNF-α secretion was tested after their addition to cell cultures stimulated with LPS (TS). […] Human Prostaglandin-H Synthase—1 (hPGH-1) and Human Prostaglandin-H Synthase—2 (hPGH-2) Inhibition Assay
(§2) Genes coding hPGH-1 and hPGH-2 were amplified with PCR using Platinum pfx DNA polymerase (Invitrogen Life Technologies) from human placenta cDNA library (Stratagene). Primer sequences used for hPGH-1 are: • 5′ […] 3′ (SEQ ID NO: 1) and • 5′ […] 3′ (SEQ ID NO: 2); for hPGH-2 • 5′ […] 3′ (SEQ ID NO: 3) and • 5′ […] 3′ (SEQ ID NO: 4). PCR products were cloned into HindIII and BamHI restriction sites of pcDNA3.1 (Hygro(+) plasmid (Invitrogen Life Technologies), sequences were confirmed by sequencing.
(§3) Transfection was performed on COS-7 cells (ATCC), cells were grown in 10% foetal bovine serum (FBS) in DMEM medium (Invitrogen Life Tecnologies), 37° C. in an atmosphere with 5% CO2 and 90% moisture, to full confluency in 24 well plate (Falcon). 1 μg plasmid DNA (pcDNA Hygro 3.1 (+) containing PGH-1 or PGH-2 gene, or pcDNA Hygro 3.1 (+) for negative control samples) was combined with 1,5 μl Lipofectamine 2000 (Invitrogen Life Technologies), following manufacturer's recommendations. […] After 30 minutes supernatants were removed and PGE-2 was measured with PGE-2 assay kit (Cayman) following manufacturer's instructions.
(§4) % inhibition was calculated by the following equation: % inhibition=(1−sample PGE-2 concentration/positive control PGE-2 concentration)*100 In Vivo Model of LPS-Induced Exccessive Secretion of TNF-α in Mice

[3] = target: T2, Human Prostaglandin-H Synthase—2 (hPGH-2) (Homo sapiens, UniProt P35354); experiment: Human prostaglandin-H synthase-2 (hPGH-2) inhibition assay in transfected COS-7 cells (PGE-2 readout); assay type: cell-based; details: COS-7 cells transfected with hPGH-2, arachidonic acid 20 μM, PGE-2 measured
T2 construct: expressed in transfected cells; host or cells: COS-7 cells (ATCC), transient transfection with Lipofectamine 2000
T2 sequence (P35354 18-604): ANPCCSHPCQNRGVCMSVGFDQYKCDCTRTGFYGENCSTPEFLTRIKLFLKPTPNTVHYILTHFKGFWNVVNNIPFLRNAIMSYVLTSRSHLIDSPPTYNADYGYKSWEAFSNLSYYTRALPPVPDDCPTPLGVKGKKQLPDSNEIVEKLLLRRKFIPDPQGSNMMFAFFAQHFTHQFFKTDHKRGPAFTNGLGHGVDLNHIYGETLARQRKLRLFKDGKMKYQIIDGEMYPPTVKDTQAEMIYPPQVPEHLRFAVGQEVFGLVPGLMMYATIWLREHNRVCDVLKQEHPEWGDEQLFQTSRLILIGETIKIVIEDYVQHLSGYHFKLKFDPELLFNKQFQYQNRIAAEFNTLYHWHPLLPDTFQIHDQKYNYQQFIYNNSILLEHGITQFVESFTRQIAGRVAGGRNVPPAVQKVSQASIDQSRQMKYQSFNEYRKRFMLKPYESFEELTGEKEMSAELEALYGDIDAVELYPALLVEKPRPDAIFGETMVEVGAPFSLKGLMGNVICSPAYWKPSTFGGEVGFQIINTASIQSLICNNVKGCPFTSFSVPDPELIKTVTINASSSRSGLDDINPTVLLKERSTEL
Experimental: as §1, §2, §3, §4

TNF-α [4] = experiment: In vivo model of LPS-induced excessive secretion of TNF-α in mice; details: male BALB/c mice, substance p.o. 30 minutes prior to i.p. LPS 25 μg/animal, plasma TNF-α two hours later; dose not given
Experimental: as §4
TNF-α secretion in mice was induced according to the previously described method (Badger A. M. Et al., J. of Pharmac. and Env. Therap. 279 1996 1453-1461). In the test, male BALB/c mice at an age of 8 to 12 weeks in groups of 6 to 10 animals were used. Animals were treated p.o. either only with the solvent (in a negative and a positive control) or with solutions of the substance 30 minutes prior to the i.p. treatment with LPS (E. coli serotype 0111:B4, Sigma) in a dose of 25 μg/animal. Two hours later the animals were euthanized by means of i.p. injection of Roumpun (Bayer) and Ketanest (Park-Davis). […] The TNF-α level in the plasma was determined by ELISA (Biosource, R&D Systems) according to the process prescribed by the manufacturer. The test sensitivity was <3 pg/mL TNF-α. The percentage inhibition of TNF-α production was calculated by the following equation: % inhibition=[1−(TS—NC)/(PC—NC)]*100

| IC50 (TNF-α [1]) [µM] | IC50 [2] [µM] | IC50 [3] [µM] | Compound | LPS induced excessive secretion of TNF-α % of inhibition (TNF-α [4]) [%] |
| --- | --- | --- | --- | --- |
| 1 | > 30 | 1 | CC[C@H]1OC(=O)[C@H](C)[C@@H](O[C@H]2C[C@@](C)(OC)[C@@H](O)[C@H](C)O2)[C@H](C)[C@@H](O[C@@H]2O[C@H](C)C[C@H](N(C)C)[C@H]2O)[C@](C)(O)C[C@@H](C)CN(CCCNC(=O)Cc2c(C)n(C(=O)c3ccc(Cl)cc3)c3ccc(OC)cc23)[C@H](C)[C@@H](O)[C@]1(C)O [Ex. 4] | 70 |
| 1 | 10 | 10 | CC[C@H]1OC(=O)[C@H](C)[C@@H](O[C@H]2C[C@@](C)(OC)[C@@H](O)[C@H](C)O2)[C@H](C)[C@@H](O[C@@H]2O[C@H](C)C[C@H](N(C)C)[C@H]2O)[C@](C)(O)C[C@@H](C)CN(CCCNC(=O)[C@@H](C)c2ccc(CC(C)C)cc2)[C@H](C)[C@@H](O)[C@]1(C)O [Ex. 5] | 66 |
| 10 | > 30 | > 30 | CC[C@H]1OC(=O)[C@H](C)[C@@H](O)[C@H](C)[C@@H](O[C@@H]2O[C@H](C)C[C@H](N(C)C)[C@H]2O)[C@](C)(O)C[C@@H](C)CN(CCCNC(=O)Cc2c(C)n(C(=O)c3ccc(Cl)cc3)c3ccc(OC)cc23)[C@H](C)[C@@H](O)[C@]1(C)O [Ex. 10] | 47 |
| > 30 | – | – | CC(C)Cc1ccc([C@@H](C)C(=O)O)cc1 [S-(+)-Ibuprofen, S-(+)-ibuprofen, reference compound] | – |
